Data set [1] addresses T1, human PTHR1 (R^0 conformation) (Homo sapiens, UniProt Q03431).
T1 construct: expressed in transfected cells; host or cells: COS-7 cells (transient transfection; membranes)
T1 sequence (Q03431 27-593): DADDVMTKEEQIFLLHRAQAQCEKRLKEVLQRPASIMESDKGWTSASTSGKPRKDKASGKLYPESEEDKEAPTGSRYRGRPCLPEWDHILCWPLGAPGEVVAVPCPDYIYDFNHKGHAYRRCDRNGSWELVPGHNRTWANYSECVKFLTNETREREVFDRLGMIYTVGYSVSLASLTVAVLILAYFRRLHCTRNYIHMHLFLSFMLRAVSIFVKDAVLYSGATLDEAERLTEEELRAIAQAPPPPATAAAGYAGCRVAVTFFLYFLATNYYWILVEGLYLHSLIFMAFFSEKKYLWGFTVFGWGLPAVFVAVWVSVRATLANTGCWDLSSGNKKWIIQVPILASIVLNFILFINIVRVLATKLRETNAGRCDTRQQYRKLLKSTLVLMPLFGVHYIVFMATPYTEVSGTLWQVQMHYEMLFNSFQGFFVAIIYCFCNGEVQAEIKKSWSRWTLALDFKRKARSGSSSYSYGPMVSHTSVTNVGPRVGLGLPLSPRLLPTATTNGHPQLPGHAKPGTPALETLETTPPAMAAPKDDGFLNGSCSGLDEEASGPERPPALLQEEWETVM
The experiment in a line: Competition binding to the R^0 conformation of PTHR1.

Data set [2] concerns the target T2, human PTHR1 (RG conformation) (Homo sapiens, UniProt Q03431).
T2 construct: expressed in transfected cells; host or cells: COS-7 cells (transient co-transfection; membranes)
T2 sequence (Q03431 27-593): T1 sequence (Q03431 27-593)
The experiment in a line: Competition binding to the RG conformation of PTHR1.

Data set [3] can be described thus: Pharmacokinetics in normal rats, i.v., plasma peptide by ELISA. To be noted: i.v. 10 nmol/kg, plasma with protease inhibitors, n = 4 (M‐PTH/PTHrP) or 3 (PTH(1–34)). The format is in vivo, rat. As for the experimental part: For pharmacokinetic studies, plasma samples were prepared in the presence of protease inhibitors (aprotinin, leupeptin, EDTA). Plasma levels of PTH(1–34) were assessed by ELISA assay (Human PTH(1–34) Specific ELISA Kit; Immutopics Inc, San Clemente, CA, USA), and plasma levels of M‐PTH/PTHrP were assessed by ELISA assay (PTH‐RP 1–34 Human Enzyme Immunoassay Kit; Peninsula Laboratories International, San Carlos CA, USA) using M‐PTH/PTHrP peptides as standard solutions.
Figure 3 Pharmacodynamic and pharmacokinetic profiles of M‐PTH/PTHrP and PTH(1–34) in rats. (A) Effects of M‐PTH/PTHrP and PTH(1–34) on blood ionized Ca in TPTX rats by i.v. injection. M‐PTH/PTHrP and PTH(1–34) were injected intravenously in TPTX rats at the indicated doses, and blood samples were collected from the tail vein measured for ionized Ca; data are means ± SE; n = 5 or 3 (PTH(1–34)). *p < 0.05, **p < 0.01, ***p < 0.005 M‐PTH/PTHrP or PTH(1–34) versus TPTX‐vehicle. […] M‐PTH/PTHrP and PTH(1–34) each at a dose of 10 nmol/kg were i.v. administered, and blood samples were collected from the jugular vein in the presence of proteinase inhibitors (Aprotinin, Leupeptin, and EDTA) and the plasma samples were assessed for peptide concentration using a hPTHrP(1–34)‐targeted EIA for M‐PTH/PTHrP and an hPTH(1–34)‐targeted ELISA for PTH(1–34). […]
A general note: An ELISA detects its analyte on a solid surface through an enzyme-linked reagent.

The results in this text go back to PMC7340446, “Optimization of PTH/PTHrP Hybrid Peptides to Derive a Long‐Acting PTH Analog (LA‐PTH)” (JBMR Plus, 2020).

What is called IC50 is the concentration at which inhibition is half-maximal.

Where no end group is shown, it is not given here.

As for “AVAEIQLMHQRAKWIQDLRRRFFLHHLIAEIHTAEI [M‐PTH(1‐14)/PTHrP(15‐36), [Ala^1,3,12,Gln^10,Arg^11,Trp^14]‐PTH(1‐14)/PTHrP(15–36)]”, the IC50 in data set [1] amounted to 2.69 ± 0.99 nM; in data set [2], 0.67 ± 0.05 nM. Besides, the “Time by which plasma concentration declined to the lowest detection level” value in data set [3] is listed as no more than 60 min.
